Measurements from patent US20050032873A1, “3-Amino chroman and 2-amino tetralin derivatives” (Wyeth, priority 2003, published 2005).
Read-outs that look alike come from different tables or passages of the source.

How the values were obtained:
[1] = molecular target: T1, cloned human 5-HT1A receptors (Homo sapiens, UniProt P08908); assay: 35S-GTPγS binding assay, 5-HT1A function; format: biochemical; conditions: for IC50: antagonist potency, reversal of 8-OH-DPAT, read-out: 5-HT1A Function GTPγS IC50; for EC50: agonist potency
T1 construct: expressed in transfected cells
T1 sequence (P08908 1-422): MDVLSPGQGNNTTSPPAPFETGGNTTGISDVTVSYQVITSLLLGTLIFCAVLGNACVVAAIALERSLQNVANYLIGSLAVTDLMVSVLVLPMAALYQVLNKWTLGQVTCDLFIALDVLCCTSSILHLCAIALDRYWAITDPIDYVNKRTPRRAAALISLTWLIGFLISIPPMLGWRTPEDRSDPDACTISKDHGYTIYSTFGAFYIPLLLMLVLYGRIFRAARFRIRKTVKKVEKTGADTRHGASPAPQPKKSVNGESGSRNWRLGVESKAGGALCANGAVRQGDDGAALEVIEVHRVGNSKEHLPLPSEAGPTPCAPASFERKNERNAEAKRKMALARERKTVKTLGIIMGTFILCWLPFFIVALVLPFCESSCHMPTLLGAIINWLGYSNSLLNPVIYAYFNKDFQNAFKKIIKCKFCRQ

serotonin transporter = molecular target: T2, serotonin transporter (Rattus norvegicus, UniProt P31652); assay: 5-HT transporter affinity: displacement of 3H-paroxetine from male rat cortical membranes; format: binding; conditions: for Ki: displacement of 3H-paroxetine, male rat cortical membranes, read-out: 5-HT Transporter Affinity Ki
T2 construct: displace ^3H-paroxetine from male rat cortical membranes; from tissue; host or cells: male rat cortical membranes
T2 sequence (P31652 whole entry): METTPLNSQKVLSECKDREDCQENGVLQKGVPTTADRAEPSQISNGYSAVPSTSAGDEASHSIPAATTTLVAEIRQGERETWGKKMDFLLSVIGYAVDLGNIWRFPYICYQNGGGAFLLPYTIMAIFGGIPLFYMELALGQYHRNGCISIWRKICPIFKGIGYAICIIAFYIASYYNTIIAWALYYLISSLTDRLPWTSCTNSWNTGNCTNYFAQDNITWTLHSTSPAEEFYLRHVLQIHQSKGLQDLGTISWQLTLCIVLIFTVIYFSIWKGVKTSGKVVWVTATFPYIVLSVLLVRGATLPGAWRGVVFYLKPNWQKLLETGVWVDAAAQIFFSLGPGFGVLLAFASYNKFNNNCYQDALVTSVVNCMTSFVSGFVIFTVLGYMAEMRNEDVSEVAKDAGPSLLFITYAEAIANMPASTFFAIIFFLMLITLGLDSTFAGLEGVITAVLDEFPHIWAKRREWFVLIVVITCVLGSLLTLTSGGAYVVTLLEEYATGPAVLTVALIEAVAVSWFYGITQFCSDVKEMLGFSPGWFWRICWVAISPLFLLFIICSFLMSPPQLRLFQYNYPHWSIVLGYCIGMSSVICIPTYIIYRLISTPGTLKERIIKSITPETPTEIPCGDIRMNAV

5-HT1A receptor [2] = molecular target: T3, 5-HT1A receptor (Homo sapiens, UniProt P08908); assay: 5-HT1A receptor affinity: displacement of [3H] 8-OH-DPAT; format: binding; parameters: expressed in transfected cells; conditions: displacement of [3H] 8-OH-DPAT; CHO cells stably transfected with human 5-HT1A receptors; read-out: 5-HT1A Receptor Affinity Ki
T3 sequence (P08908 1-422): T1 sequence (P08908 1-422)

5-HT1A receptor [3] = molecular target: T3, 5-HT1A receptor; assay: cAMP accumulation assay, 5-HT1A function; format: cell-based; conditions: for IC50: cells marked IC50 (antagonist), read-out: 5-HT1A Function cAMP IC50; for Emax: in brackets after EC50 or IC50, read-out: 5-HT1A Function cAMP (Emax); for EC50: cells marked EC50 (agonist)
[4] = maximum inhibitory effect, in brackets after IC50, read-out: 5-HT1A Function GTPγS (Imax)
[5] = maximum stimulatory effect, in brackets after EC50, read-out: 5-HT1A Function GTPγS (Emax)

SMILES | IC50 [1] | Emax [1, 4] | Ki (serotonin transporter) | Ki (5-HT1A receptor [2]) | IC50 (5-HT1A receptor [3]) | Emax (5-HT1A receptor [3]) | EC50 [1] | Emax [1, 5] | EC50 (5-HT1A receptor [3]) | 5-HT Transporter Affinity, % @ 1 μM (serotonin transporter; @ 1 μM)
NC(=O)c1ccc(F)c2c1C[C@H](N(CCCCc1c[nH]c3ccc(F)cc13)C1CCC1)CO2 [Compound 83b, (3S)-3-{cyclobutyl[4-(5-fluoro-1H-indol-3-yl)butyl]amino}-8-fluorochromane-5-carboxamide] | 2500 nM | 100% | 16.9 nM | 111 nM | 5800 nM | 0% | – | – | – | –
CNC(=O)c1ccc(F)c2c1CC(N(CCc1c[nH]c3ccc(F)cc13)CC1CC1)CO2 (stereo not drawn) [Compound 86, 3-{(cyclopropylmethyl)[2-(5-fluoro-1H-indol-3-yl)ethyl]amino}-8-fluoro-N-methylchromane-5-carboxamide] | 773 nM | 100% | 70 nM | 8.82 nM | 229 nM | 0% | – | – | – | –
CNC(=O)c1ccc(F)c2c1CC(N(CCc1c[nH]c3ccc(F)cc13)C1CCC1)CO2 (stereo not drawn) [Compound 87, 3-{cyclobutyl[2-(5-fluoro-1H-indol-3-yl)ethyl]amino}-8-fluoro-N-methylchromane-5-carboxamide] | 513 nM | 100% | 26.5 nM | 7.01 nM | 172 nM | 0% | – | – | – | –
CCCN(CCCc1c[nH]c2ccc(F)cc12)C1COc2c(F)ccc(C(=O)NC)c2C1 (stereo not drawn) [Compound 90, 8-fluoro-3-[[3-(5-fluoro-1H-indol-3-yl)propyl](propyl)amino]-N-methylchromane-5-carboxamide] | 617 nM | 33% | 3.37 nM | 0.81 nM | 73.8 nM | 0% | 34.5 nM | 47% | – | –
CNC(=O)c1ccc(F)c2c1CC(N(CCCc1c[nH]c3ccc(F)cc13)CC1CC1)CO2 (stereo not drawn) [Compound 91, 3-{(cyclopropylmethyl)[3-(5-fluoro-1H-indol-3-yl)propyl]amino}-8-fluoro-N-methylchromane-5-carboxamide] | 191 nM | 77% | 3.33 nM | 2.28 nM | 88.3 nM | 0% | – | – | – | –
CCCN(CCCCc1c[nH]c2ccc(F)cc12)C1COc2c(F)ccc(C(=O)NC)c2C1 (stereo not drawn) [Compound 93, 8-fluoro-3-[[4-(5-fluoro-1H-indol-3-yl)butyl](propyl)amino]-N-methylchromane-5-carboxamide] | 304 nM | 100% | 2.49 nM | 7.67 nM | 228 nM | 0% | – | – | – | –
CNC(=O)c1ccc(F)c2c1CC(N(CCCCc1c[nH]c3ccc(F)cc13)CC1CC1)CO2 (stereo not drawn) [Compound 94, 3-{(cyclopropylmethyl)[4-(5-fluoro-1H-indol-3-yl)butyl]amino}-8-fluoro-N-methylchromane-5-carboxamide] | 141 nM | 100% | 1.27 nM | 1.66 nM | 58.4 nM | 0% | – | – | – | –
CNC(=O)c1ccc(F)c2c1CC(N(CCCCc1c[nH]c3ccc(F)cc13)C1CCC1)CO2 (stereo not drawn) [Compound 95, 3-{cyclobutyl[4-(5-fluoro-1H-indol-3-yl)butyl]amino}-8-fluoro-N-methylchromane-5-carboxamide] | 422 nM | 100% | 6.4 nM | 10 nM | 121 nM | 0% | – | – | – | –
N#Cc1ccc2[nH]cc(CCCN(C3CCC3)[C@H]3COc4c(F)ccc(C(N)=O)c4C3)c2c1 [Compound 97b, (3R)-3-[[3-(5-cyano-1H-indol-3-yl)propyl](cyclobutyl)amino]-8-fluorochromane-5-carboxamide] | 317 nM | 100% | 2.44 nM | 1.98 nM | 71 nM | 0% | – | – | – | –
N#Cc1ccc2[nH]cc(CCCN(CC3CC3)[C@@H]3COc4c(F)ccc(C(N)=O)c4C3)c2c1 [Compound 98a, (3S)-3-[[3-(5-cyano-1H-indol-3-yl)propyl](cyclopropylmethyl)amino]-8-fluorochromane-5-carboxamide] | 586 nM | 51% | 3.2 nM | 4.72 nM | 113 nM | 0% | – | – | – | –
N#Cc1ccc2[nH]cc(CCCN(CC3CC3)[C@H]3COc4c(F)ccc(C(N)=O)c4C3)c2c1 [Compound 98b, (3R)-3-[[3-(5-cyano-1H-indol-3-yl)propyl](cyclopropylmethyl)amino]-8-fluorochromane-5-carboxamide] | 456 nM | 99% | 5.5 nM | 6.8 nM | 162 nM | 0% | – | – | – | –
CCCN(CCCc1c[nH]c2c(OC)cccc12)C1COc2c(F)ccc(C(N)=O)c2C1 (stereo not drawn) [Compound 100, 8-fluoro-3-[[3-(7-methoxy-1H-indol-3-yl)propyl](propyl)amino]chromane-5-carboxamide] | – | – | 141 nM | 3.85 nM | – | 87% | 67.6 nM | 100% | 61.5 nM | –
CCN(CCCc1c[nH]c2c(OC)cccc12)C1COc2c(F)ccc(C(N)=O)c2C1 (stereo not drawn) [Compound 101, 3-{ethyl[3-(7-methoxy-1H-indol-3-yl)propyl]amino}-8-fluorochromane-5-carboxamide] | – | – | 642 nM | 0.5 nM | – | 68.5% | 103 nM | 99% | 45.1 nM | –
COc1cccc2c(CCCN(C3CCC3)C3COc4c(F)ccc(C(N)=O)c4C3)c[nH]c12 (stereo not drawn) [Compound 102, 3-{cyclobutyl[3-(7-methoxy-1H-indol-3-yl)propyl]amino}-8-fluorochromane-5-carboxamide] | 557 nM | 100% | 1110 nM | 3.22 nM | 270 nM | 0% | – | – | – | –
COc1cccc2c(CCCN(CC3CC3)C3COc4c(F)ccc(C(N)=O)c4C3)c[nH]c12 (stereo not drawn) [Compound 103, 3-{(cyclopropylmethyl)[3-(7-methoxy-1H-indol-3-yl)propyl]amino}-8-fluorochromane-5-carboxamide] | 1000 nM | 95% | 976 nM | 3.54 nM | 172 nM | 0% | – | – | – | –
CCCN(CCCc1c[nH]c2ccc(OC)cc12)C1COc2c(F)ccc(C(N)=O)c2C1 (stereo not drawn) [Compound 106, 8-fluoro-3-[[3-(5-methoxy-1H-indol-3-yl)propyl](propyl)amino]chromane-5-carboxamide] | 111 nM | 42% | – | 0.61 nM | – | 99% | 53.1 nM | 47% | 2.53 nM | 53% @ 1 μM
COc1ccc2[nH]cc(CCCN(C3CCC3)C3COc4c(F)ccc(C(N)=O)c4C3)c2c1 (stereo not drawn) [Compound 107, 3-{cyclobutyl[3-(5-methoxy-1H-indol-3-yl)propyl]amino}-8-fluorochromane-5-carboxamide] | 253 nM | 100% | 834 nM | 1.19 nM | 45.1 nM | 0% | – | – | – | –
COc1ccc2[nH]cc(CCCN(CC3CC3)C3COc4c(F)ccc(C(N)=O)c4C3)c2c1 (stereo not drawn) [Compound 108, 3-{(cyclopropylmethyl)[3-(5-methoxy-1H-indol-3-yl)propyl]amino}-8-fluorochromane-5-carboxamide] | 94.2 nM | 100% | 882 nM | 1.17 nM | 45.4 nM | 0% | – | – | – | –
CCN(CCCc1c[nH]c2c(Cl)cccc12)C1COc2c(F)ccc(C(N)=O)c2C1 (stereo not drawn) [Compound 110, 3-[[3-(7-chloro-1H-indol-3-yl)propyl](ethyl)amino]-8-fluorochromane-5-carboxamide] | 196 nM | 59% | 4.59 nM | 6.45 nM | – | 75% | 244 nM | 61% | 36.4 nM | –
NC(=O)c1ccc(F)c2c1CC(N(CCCc1c[nH]c3c(Cl)cccc13)C1CCC1)CO2 (stereo not drawn) [Compound 111, 3-[[3-(7-chloro-1H-indol-3-yl)propyl](cyclobutyl)amino]-8-fluorochromane-5-carboxamide] | 1600 nM | 100% | 66 nM | 26 nM | 1060 nM | 0% | – | – | – | –
NC(=O)c1ccc(F)c2c1CC(N(CCCc1c[nH]c3c(Cl)cccc13)CC1CC1)CO2 (stereo not drawn) [Compound 112, 3-[[3-(7-chloro-1H-indol-3-yl)propyl](cyclopropylmethyl)amino]-8-fluorochromane-5-carboxamide] | 241 nM | 100% | 61 nM | 0.74 nM | 56.8 nM | 0% | – | – | – | –
